From the NIST ThermoML archive (doi:10.1016/j.jct.2011.10.013)
Numbers after ± are expanded uncertainties.

Key:
[1] = for surface tension liquid-gas: Dataphysics DCAT21 digital tensiometer; for mass density: Liquid, Vibrating tube method
[2] = xn = mol fraction of the nth substance listed; conditions: 298.15 K; for surface tension liquid-gas: Dataphysics DCAT21 digital tensiometer; for mass density: 101 kPa, Liquid, Vibrating tube method

CCCCCCCC[n+]1ccccc1.O=[N+]([O-])[O-] [1-octylpyridinium nitrate]
[1]
Conditions	surface tension liquid-gas [mN/m]
293.15 K	36.12 ± 0.53
298.15 K	35.76 ± 0.53
303.15 K	35.5 ± 0.53
308.15 K	35.18 ± 0.53
313.15 K	34.76 ± 0.53
318.15 K	34.48 ± 0.53
323.15 K	34.12 ± 0.53
328.15 K	33.78 ± 0.53

[1], 101.33 kPa
Conditions	mass density [kg/m3]
293.15 K	1093.5 ± 1
298.15 K	1089.5 ± 1
303.15 K	1084.2 ± 1
308.15 K	1078.6 ± 1
313.15 K	1073.4 ± 1
318.15 K	1068.6 ± 1
323.15 K	1063.8 ± 1
328.15 K	1059.7 ± 1

CCCCCCCC[n+]1ccccc1.O=[N+]([O-])[O-] [1-octylpyridinium nitrate] + CCCCO
[2]
Conditions	mass density [kg/m3]	surface tension liquid-gas [mN/m]
x1 = 0.1245	875.3 ± 1	25.17 ± 0.5
x1 = 0.2008	910 ± 1	25.84 ± 0.5
x1 = 0.3038	948.6 ± 1	26.35 ± 0.5
x1 = 0.4019	978.1 ± 1	26.92 ± 0.5
x1 = 0.5012	1002 ± 1	27.53 ± 0.51
x1 = 0.6025	1023 ± 1	–
x1 = 0.701	1041.7 ± 1	–
x1 = 0.8005	1059 ± 1	–
x1 = 0.899	1074.9 ± 1	–
x1 = 1	1089.5 ± 1	–

CCCCCCCC[n+]1ccccc1.O=[N+]([O-])[O-] [1-octylpyridinium nitrate] + CCO
[2]
Conditions	mass density [kg/m3]	surface tension liquid-gas [mN/m]
x1 = 0.2	939.3 ± 1	26.44 ± 0.51
x1 = 0.3035	981.4 ± 1	27.83 ± 0.51
x1 = 0.4063	1011.5 ± 1	28.74 ± 0.51
x1 = 0.5087	1034.2 ± 1	29.75 ± 0.51
x1 = 0.5903	1048.5 ± 1	–
x1 = 0.7456	1069.4 ± 1	–
x1 = 0.791	1073.9 ± 1	–
x1 = 0.876	1081.5 ± 1	–
x1 = 1	1089.5 ± 1	–

CCCCCCCC[n+]1ccccc1.O=[N+]([O-])[O-] [1-octylpyridinium nitrate] + CO
[2]
Conditions	mass density [kg/m3]	surface tension liquid-gas [mN/m]
x1 = 0.1026	910.2 ± 1	27.4 ± 0.51
x1 = 0.2063	974.3 ± 1	30.11 ± 0.51
x1 = 0.3072	1011.3 ± 1	30.78 ± 0.51
x1 = 0.4225	1038.4 ± 1	32 ± 0.51
x1 = 0.5067	1052.6 ± 1	–
x1 = 0.6067	1065 ± 1	–
x1 = 0.8534	1084.4 ± 1	–
x1 = 0.936	1087.5 ± 1	–
x1 = 1	1089.5 ± 1	–

CCCCO [butan-1-ol]
Conditions	surface tension liquid-gas [mN/m]
[1], 298.15 K	23.67 ± 0.5

Conditions	mass density [kg/m3]
[1], 298.15 K, 101 kPa	805.6 ± 1

CCCCO [butan-1-ol] + CCCCCCCC[n+]1ccccc1.O=[N+]([O-])[O-]
[2], x2 = 0
Conditions	mass density [kg/m3]	surface tension liquid-gas [mN/m]
–	805.6 ± 1	23.67 ± 0.5

CCO [ethanol]
Conditions	surface tension liquid-gas [mN/m]
[1], 298.15 K	21.55 ± 0.5

Conditions	mass density [kg/m3]
[1], 298.15 K, 101 kPa	784.8 ± 1

CCO [ethanol] + CCCCCCCC[n+]1ccccc1.O=[N+]([O-])[O-]
[2], x2 = 0
Conditions	mass density [kg/m3]	surface tension liquid-gas [mN/m]
–	784.8 ± 1	21.55 ± 0.5

CO [methanol]
Conditions	surface tension liquid-gas [mN/m]
[1], 298.15 K	22.09 ± 0.5

Conditions	mass density [kg/m3]
[1], 298.15 K, 101 kPa	785.3 ± 1

CO [methanol] + CCCCCCCC[n+]1ccccc1.O=[N+]([O-])[O-]
[2], x2 = 0
Conditions	mass density [kg/m3]	surface tension liquid-gas [mN/m]
–	785.3 ± 1	22.09 ± 0.5
